Assays:
[1] = system: HEp-2 cells; test: in vitro; type: cell-based, Human
[2] = in vitro; type: cell-based, Human; conditions: human; HEp-2 cells, 5 or 6 days; read-out: Cytotoxicity CC50
[3] = system: RSV A2; test: CPE assay, RSV A2 in HEp-2 cells (resazurin); type: cell-based; conditions: human respiratory syncytial virus, 120 h, RSV A2 0.2 MOI, 5 days

In the case of `Cc1cnc(N2CC3(CCOCC3)C2)c(C(=O)Nc2ccc(C(=O)N3CCc4cc(C(=O)Nc5c(C)cccc5F)sc4-c4ccccc43)cc2)c1` [PC786], the “concentration up to which cell viability was not affected” value [1] is reported as at least 14 µM, the CC50 [2] is reported as over 14000 nM and the IC50 [3] is reported as 0.5 nM.
